Reference: ChEMBL document CHEMBL3991601, “The target landscape of clinical kinase drugs” (Science, 2017)
Active and inactive are the calls of the source. Cut-off read from the data, not from the text of the source, for most assays here: actives have a measured Kd and inactives only a lower limit.

Key:
[1] = molecular target: Cyclin-dependent kinase 12 (Homo sapiens, UniProt Q9NYV4)
[2] = molecular target: Dual specificity tyrosine-phosphorylation-regulated kinase 1A (Homo sapiens, UniProt Q13627)
Ephrin type-A receptor 5 = Ephrin type-A receptor 5 (Homo sapiens, UniProt P54756)
Sequence of Ephrin type-A receptor 5 (P54756 whole entry): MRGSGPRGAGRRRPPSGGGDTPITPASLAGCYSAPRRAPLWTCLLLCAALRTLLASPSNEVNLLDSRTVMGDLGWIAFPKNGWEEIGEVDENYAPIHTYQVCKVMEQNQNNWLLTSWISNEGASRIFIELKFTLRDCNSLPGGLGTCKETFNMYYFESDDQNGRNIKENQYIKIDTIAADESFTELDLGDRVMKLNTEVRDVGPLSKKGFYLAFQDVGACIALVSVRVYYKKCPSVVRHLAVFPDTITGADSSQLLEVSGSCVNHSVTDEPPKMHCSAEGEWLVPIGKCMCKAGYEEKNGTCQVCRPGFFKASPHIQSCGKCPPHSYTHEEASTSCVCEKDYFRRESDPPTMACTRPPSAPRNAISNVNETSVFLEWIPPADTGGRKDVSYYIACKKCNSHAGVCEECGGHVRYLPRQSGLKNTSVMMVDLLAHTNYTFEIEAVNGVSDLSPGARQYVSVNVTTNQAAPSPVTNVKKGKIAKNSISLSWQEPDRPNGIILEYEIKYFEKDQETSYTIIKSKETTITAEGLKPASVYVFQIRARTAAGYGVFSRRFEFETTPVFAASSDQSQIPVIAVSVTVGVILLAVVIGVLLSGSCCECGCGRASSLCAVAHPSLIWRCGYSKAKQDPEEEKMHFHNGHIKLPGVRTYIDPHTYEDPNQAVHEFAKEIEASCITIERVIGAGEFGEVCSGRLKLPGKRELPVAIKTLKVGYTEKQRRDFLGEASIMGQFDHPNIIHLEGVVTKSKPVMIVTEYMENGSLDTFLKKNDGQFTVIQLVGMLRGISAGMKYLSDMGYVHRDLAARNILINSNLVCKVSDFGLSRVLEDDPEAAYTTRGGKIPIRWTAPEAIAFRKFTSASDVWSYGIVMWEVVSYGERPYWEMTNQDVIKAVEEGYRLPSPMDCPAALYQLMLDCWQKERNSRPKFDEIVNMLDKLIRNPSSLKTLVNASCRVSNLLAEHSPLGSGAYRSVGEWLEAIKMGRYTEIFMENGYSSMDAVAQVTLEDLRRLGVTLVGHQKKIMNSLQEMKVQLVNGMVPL

[3] = molecular target: Serine/threonine-protein kinase/endoribonuclease IRE2 (Homo sapiens, UniProt Q76MJ5)
Sequence of Serine/threonine-protein kinase/endoribonuclease IRE2 (Q76MJ5 whole entry): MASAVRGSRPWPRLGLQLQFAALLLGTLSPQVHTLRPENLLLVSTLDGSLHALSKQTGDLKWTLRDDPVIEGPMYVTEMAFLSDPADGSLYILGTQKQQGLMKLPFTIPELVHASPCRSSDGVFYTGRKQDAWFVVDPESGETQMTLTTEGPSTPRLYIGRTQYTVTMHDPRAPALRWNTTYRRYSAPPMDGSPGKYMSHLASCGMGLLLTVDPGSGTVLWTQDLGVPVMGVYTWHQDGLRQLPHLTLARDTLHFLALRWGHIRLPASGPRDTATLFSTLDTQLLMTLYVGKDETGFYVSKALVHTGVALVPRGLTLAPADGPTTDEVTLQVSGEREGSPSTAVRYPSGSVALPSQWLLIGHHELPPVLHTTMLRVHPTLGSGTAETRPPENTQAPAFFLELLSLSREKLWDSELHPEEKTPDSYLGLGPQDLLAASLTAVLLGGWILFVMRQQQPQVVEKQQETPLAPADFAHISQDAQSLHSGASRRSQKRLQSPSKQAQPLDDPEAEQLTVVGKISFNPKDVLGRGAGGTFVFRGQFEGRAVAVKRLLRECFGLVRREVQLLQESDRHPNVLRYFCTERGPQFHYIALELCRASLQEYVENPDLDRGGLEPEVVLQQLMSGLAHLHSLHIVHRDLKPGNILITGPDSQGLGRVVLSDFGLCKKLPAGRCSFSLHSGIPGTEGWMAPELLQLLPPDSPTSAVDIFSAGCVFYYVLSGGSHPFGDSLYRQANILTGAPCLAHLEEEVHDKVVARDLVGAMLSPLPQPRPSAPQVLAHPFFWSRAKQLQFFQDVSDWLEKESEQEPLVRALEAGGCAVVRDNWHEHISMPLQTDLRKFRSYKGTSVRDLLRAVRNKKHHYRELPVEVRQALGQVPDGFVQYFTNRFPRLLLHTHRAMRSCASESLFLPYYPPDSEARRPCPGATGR

[4] = molecular target: T1, MAP kinase-activated protein kinase 5 (Homo sapiens, UniProt Q8IW41)
T1 sequence (Q8IW41 whole entry): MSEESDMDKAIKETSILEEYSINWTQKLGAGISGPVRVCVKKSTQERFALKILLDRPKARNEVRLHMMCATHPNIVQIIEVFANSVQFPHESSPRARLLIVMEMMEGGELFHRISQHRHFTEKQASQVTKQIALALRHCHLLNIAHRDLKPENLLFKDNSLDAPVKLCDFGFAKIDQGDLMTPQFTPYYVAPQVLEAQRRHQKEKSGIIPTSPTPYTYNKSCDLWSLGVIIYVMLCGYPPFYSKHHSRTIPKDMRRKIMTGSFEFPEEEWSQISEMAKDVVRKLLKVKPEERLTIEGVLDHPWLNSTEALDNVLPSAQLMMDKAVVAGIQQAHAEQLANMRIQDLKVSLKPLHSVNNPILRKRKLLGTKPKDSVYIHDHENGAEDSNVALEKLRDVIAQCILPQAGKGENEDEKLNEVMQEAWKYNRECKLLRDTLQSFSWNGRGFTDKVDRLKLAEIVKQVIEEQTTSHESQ

[5] = molecular target: T2, Serine/threonine-protein kinase D2 (Homo sapiens, UniProt Q9BZL6)
T2 sequence (Q9BZL6 whole entry): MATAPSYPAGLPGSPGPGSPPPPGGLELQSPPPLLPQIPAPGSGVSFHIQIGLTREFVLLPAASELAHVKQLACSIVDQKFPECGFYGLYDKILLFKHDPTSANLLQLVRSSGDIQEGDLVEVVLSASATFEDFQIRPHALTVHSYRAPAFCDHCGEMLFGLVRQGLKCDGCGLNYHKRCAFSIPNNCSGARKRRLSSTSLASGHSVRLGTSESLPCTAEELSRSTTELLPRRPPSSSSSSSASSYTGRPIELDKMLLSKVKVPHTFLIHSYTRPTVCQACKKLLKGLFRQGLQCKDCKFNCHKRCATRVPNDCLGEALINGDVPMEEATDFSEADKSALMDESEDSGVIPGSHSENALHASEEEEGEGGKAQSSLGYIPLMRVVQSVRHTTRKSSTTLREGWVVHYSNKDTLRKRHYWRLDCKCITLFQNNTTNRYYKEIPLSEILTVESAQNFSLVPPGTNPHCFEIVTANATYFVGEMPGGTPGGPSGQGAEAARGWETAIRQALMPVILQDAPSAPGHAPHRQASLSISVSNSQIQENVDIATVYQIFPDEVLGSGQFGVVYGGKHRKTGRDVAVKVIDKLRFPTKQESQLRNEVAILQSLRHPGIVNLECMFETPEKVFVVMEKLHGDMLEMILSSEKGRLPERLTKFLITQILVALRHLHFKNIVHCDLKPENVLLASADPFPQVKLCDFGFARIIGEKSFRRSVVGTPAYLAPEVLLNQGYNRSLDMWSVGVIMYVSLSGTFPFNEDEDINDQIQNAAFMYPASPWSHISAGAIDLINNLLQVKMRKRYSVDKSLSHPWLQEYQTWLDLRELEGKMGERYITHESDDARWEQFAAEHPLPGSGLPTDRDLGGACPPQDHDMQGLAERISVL

[6] = molecular target: Ribosomal protein S6 kinase alpha-1 (Homo sapiens, UniProt Q15418)
Sequence of Ribosomal protein S6 kinase alpha-1 (Q15418 whole entry): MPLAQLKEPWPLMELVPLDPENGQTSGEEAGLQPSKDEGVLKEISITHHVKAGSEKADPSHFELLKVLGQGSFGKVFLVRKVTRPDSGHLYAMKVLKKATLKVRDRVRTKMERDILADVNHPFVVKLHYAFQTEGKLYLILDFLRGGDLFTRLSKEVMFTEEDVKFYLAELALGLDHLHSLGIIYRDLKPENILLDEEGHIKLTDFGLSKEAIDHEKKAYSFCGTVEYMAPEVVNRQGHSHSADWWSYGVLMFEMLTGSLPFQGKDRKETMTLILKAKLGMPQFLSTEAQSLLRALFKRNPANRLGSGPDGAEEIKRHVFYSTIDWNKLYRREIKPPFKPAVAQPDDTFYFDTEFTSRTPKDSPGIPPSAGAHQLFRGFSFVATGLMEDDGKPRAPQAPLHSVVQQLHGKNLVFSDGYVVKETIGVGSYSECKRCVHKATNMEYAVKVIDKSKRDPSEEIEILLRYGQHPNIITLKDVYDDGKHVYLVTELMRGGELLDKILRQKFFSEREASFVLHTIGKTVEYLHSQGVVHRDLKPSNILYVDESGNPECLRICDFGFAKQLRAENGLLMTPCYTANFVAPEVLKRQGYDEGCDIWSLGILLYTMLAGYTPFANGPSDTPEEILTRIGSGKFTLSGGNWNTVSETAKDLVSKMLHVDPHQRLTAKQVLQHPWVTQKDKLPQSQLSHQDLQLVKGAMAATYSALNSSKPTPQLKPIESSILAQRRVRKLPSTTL

TGF-beta receptor type-1 = molecular target: T3, TGF-beta receptor type-1 (Homo sapiens, UniProt P36897)
T3 sequence (P36897 whole entry): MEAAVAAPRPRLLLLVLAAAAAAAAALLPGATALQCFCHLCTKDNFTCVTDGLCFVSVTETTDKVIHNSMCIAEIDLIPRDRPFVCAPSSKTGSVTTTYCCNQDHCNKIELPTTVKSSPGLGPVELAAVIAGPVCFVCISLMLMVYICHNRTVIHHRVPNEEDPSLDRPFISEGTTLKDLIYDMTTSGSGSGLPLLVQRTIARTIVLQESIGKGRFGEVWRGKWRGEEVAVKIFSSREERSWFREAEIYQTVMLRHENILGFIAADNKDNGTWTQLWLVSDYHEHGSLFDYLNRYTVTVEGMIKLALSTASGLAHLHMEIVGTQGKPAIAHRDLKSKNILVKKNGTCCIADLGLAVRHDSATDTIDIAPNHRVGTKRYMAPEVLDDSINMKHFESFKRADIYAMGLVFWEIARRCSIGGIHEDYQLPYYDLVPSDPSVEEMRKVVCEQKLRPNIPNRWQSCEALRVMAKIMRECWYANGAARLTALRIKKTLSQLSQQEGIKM

[7] = molecular target: T4, Tyrosine--tRNA ligase, cytoplasmic (Homo sapiens, UniProt P54577)
T4 sequence (P54577 whole entry): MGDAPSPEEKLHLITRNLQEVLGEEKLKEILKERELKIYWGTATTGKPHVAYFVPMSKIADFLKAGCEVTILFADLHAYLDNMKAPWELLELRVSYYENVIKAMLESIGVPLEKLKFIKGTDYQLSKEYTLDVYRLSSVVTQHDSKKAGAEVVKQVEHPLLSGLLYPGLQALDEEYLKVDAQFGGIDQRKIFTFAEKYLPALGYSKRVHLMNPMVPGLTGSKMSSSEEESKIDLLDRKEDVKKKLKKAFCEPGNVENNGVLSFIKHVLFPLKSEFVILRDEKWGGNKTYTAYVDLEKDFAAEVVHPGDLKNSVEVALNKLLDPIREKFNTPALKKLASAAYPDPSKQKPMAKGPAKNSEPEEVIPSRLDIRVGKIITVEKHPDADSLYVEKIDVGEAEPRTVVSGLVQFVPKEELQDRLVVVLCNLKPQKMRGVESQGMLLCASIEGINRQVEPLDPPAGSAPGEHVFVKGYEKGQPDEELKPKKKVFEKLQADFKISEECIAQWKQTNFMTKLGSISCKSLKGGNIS

[8] = molecular target: Mitogen-activated protein kinase kinase kinase kinase 1 (Homo sapiens, UniProt Q92918)
Sequence of Mitogen-activated protein kinase kinase kinase kinase 1 (Q92918 whole entry): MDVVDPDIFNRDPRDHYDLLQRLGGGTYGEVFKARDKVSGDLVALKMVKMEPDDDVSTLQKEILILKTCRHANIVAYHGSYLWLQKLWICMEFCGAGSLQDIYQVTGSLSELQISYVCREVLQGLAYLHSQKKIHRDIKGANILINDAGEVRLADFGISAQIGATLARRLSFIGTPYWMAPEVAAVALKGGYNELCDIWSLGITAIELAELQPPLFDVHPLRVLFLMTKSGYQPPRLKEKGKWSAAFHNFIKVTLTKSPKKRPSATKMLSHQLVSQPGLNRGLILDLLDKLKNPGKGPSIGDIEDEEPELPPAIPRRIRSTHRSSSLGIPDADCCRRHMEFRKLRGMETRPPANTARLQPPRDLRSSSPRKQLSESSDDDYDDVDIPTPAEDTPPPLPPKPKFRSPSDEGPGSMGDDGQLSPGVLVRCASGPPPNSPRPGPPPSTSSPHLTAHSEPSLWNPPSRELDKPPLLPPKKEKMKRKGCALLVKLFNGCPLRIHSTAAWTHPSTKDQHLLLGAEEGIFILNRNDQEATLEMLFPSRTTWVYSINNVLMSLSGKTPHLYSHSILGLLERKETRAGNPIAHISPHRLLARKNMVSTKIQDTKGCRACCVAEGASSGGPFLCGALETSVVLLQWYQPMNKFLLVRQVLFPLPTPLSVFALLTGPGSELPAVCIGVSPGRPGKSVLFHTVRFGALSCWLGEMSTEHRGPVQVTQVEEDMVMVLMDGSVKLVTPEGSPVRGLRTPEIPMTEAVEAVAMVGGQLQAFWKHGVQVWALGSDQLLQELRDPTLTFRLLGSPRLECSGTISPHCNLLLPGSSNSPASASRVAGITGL
Note: in the data inactive means no Kd found up to 30 µM.

Sequence of Cyclin-dependent kinase 12 (Q9NYV4 whole entry): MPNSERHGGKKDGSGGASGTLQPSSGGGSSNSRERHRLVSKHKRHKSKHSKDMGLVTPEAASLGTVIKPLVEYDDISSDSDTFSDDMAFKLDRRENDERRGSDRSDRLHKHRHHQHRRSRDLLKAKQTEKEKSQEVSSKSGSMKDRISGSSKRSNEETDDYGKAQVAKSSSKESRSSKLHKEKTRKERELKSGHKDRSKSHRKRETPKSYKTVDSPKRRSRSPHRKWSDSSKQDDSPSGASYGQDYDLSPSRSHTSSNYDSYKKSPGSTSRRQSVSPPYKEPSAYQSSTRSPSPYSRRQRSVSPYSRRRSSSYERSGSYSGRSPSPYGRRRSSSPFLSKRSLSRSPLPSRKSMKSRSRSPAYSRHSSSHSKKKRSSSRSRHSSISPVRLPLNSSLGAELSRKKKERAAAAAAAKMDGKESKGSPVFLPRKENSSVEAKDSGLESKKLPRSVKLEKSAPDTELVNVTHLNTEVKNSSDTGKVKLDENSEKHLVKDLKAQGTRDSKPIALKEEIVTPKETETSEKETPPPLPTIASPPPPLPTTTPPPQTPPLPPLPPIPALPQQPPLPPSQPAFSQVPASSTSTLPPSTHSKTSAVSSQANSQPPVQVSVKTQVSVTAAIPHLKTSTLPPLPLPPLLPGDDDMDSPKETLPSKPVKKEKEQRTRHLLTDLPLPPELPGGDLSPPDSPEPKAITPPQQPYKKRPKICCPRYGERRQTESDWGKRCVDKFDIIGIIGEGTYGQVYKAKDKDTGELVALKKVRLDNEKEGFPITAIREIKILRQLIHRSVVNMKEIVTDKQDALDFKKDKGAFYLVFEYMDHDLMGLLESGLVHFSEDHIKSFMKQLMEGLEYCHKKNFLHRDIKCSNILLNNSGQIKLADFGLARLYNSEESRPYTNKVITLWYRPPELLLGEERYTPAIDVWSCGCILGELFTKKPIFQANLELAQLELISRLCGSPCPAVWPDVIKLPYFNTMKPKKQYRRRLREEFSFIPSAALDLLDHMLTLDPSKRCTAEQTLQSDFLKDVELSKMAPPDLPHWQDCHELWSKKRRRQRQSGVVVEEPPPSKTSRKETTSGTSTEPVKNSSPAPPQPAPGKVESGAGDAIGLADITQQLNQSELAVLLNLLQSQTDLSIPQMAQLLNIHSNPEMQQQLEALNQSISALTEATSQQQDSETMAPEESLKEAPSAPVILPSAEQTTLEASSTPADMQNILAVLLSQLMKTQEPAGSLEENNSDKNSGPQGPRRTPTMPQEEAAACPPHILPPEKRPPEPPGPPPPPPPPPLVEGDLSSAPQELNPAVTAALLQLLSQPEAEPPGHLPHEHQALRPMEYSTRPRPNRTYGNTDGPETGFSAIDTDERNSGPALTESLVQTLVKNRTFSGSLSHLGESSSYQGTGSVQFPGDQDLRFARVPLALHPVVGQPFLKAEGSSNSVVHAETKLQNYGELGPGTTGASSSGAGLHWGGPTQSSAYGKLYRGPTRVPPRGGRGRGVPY

Compound | Kd [1] | Kd [2] | Kd (Ephrin type-A receptor 5) | Kd [3] | Kd [4] | Kd [5] | Kd [6] | Kd (TGF-beta receptor type-1) | Kd [7] | Kd [8]
CNS(=O)(=O)Nc1nccc(Cc2c(C)c3ccc(Oc4ncccn4)cc3oc2=O)c1F [AVUTOMETINIB] | > 30 µM (inactive) | > 30 µM (inactive) | > 30 µM (inactive) | > 30 µM (inactive) | > 30 µM (inactive) | > 30 µM (inactive) | > 30 µM (inactive) | > 30 µM (inactive) | > 30 µM (inactive) | –
COc1cc2nccc(Oc3ccc(NC(=O)NC4CC4)c(Cl)c3)c2cc1C(N)=O [LENVATINIB] | > 30 µM (inactive) | > 30 µM (inactive) | > 30 µM (inactive) | > 30 µM (inactive) | > 30 µM (inactive) | > 30 µM (inactive) | – | > 30 µM (inactive) | > 30 µM (inactive) | > 30 µM (inactive)
Cc1cc2c(F)c(Oc3ncnn4cc(OC[C@@H](C)OC(=O)[C@H](C)N)c(C)c34)ccc2[nH]1 [BRIVANIB ALANINATE] | > 30 µM (inactive) | > 30 µM (inactive) | > 30 µM (inactive) | > 30 µM (inactive) | – | > 30 µM (inactive) | > 30 µM (inactive) | > 30 µM (inactive) | > 30 µM (inactive) | > 30 µM (inactive)
Nc1nc(N)c2nc(-c3cccc(O)c3)c(-c3cccc(O)c3)nc2n1 [TG100-115] | > 30 µM (inactive) | – | – | > 30 µM (inactive) | – | – | – | – | > 30 µM (inactive) | –
O=C(Nc1cccc(Cl)c1)Nc1ncc(CCNc2ncnc3ccsc23)s1 [SNS-314] | > 30 µM (inactive) | – | > 30 µM (inactive) | > 30 µM (inactive) | – | – | > 30 µM (inactive) | > 30 µM (inactive) | > 30 µM (inactive) | > 30 µM (inactive)
C[C@@H](c1ccc2nccn2c1)n1nnc2ncc(-c3cnn(C)c3)nc21 [SAVOLITINIB] | > 30 µM (inactive) | > 30 µM (inactive) | > 30 µM (inactive) | > 30 µM (inactive) | > 30 µM (inactive) | > 30 µM (inactive) | > 30 µM (inactive) | > 30 µM (inactive) | > 30 µM (inactive) | –
CN1CCN(c2ccc3nc(-c4c(N)c5c(F)cccc5[nH]c4=O)[nH]c3c2)CC1 [DOVITINIB] | > 30 µM (inactive) | – | – | > 30 µM (inactive) | – | – | – | – | > 30 µM (inactive) | –
CN(C)C(=O)c1cc2cnc(Nc3ccc(N4CCNCC4)cn3)nc2n1C1CCCC1 [RIBOCICLIB] | > 30 µM (inactive) | > 30 µM (inactive) | > 30 µM (inactive) | > 30 µM (inactive) | – | 25 µM (active) | > 30 µM (inactive) | > 30 µM (inactive) | > 30 µM (inactive) | > 30 µM (inactive)
COCCNCc1ccc(-c2cc3nccc(Oc4ccc(NC(=S)NC(=O)Cc5ccc(F)cc5)cc4F)c3s2)nc1 [GLESATINIB] | > 30 µM (inactive) | > 30 µM (inactive) | > 30 µM (inactive) | > 30 µM (inactive) | – | > 30 µM (inactive) | > 30 µM (inactive) | > 30 µM (inactive) | > 30 µM (inactive) | > 30 µM (inactive)
N[C@@H]1CCCN(c2c(/C=C3\SC(=O)NC3=O)cccc2-c2ccccc2)C1 | > 30 µM (inactive) | > 30 µM (inactive) | – | > 30 µM (inactive) | > 30 µM (inactive) | > 30 µM (inactive) | > 30 µM (inactive) | > 30 µM (inactive) | > 30 µM (inactive) | > 30 µM (inactive)
CCc1cnn2c(NCc3ccc[n+]([O-])c3)cc(N3CCCC[C@H]3CCO)nc12 [DINACICLIB] | – | – | > 30 µM (inactive) | > 30 µM (inactive) | > 30 µM (inactive) | > 30 µM (inactive) | > 30 µM (inactive) | > 30 µM (inactive) | > 30 µM (inactive) | > 30 µM (inactive)
CO[C@H]1C[C@@H]2CC[C@@H](C)[C@@](O)(O2)C(=O)C(=O)N2CCCC[C@H]2C(=O)O[C@H]([C@H](C)C[C@@H]2CC[C@@H](OCCO)[C@H](OC)C2)CC(=O)[C@H](C)/C=C(\C)[C@@H](O)[C@@H](OC)C(=O)[C@H](C)C[C@H](C)/C=C/C=C/C=C/1C [EVEROLIMUS] | > 30 µM (inactive) | > 30 µM (inactive) | > 30 µM (inactive) | > 30 µM (inactive) | – | > 30 µM (inactive) | > 30 µM (inactive) | > 30 µM (inactive) | > 30 µM (inactive) | > 30 µM (inactive)
Cc1cn(-c2cc(NC(=O)c3ccc(C)c(Nc4nccc(-c5cccnc5)n4)c3)cc(C(F)(F)F)c2)cn1 [NILOTINIB] | > 30 µM (inactive) | – | – | > 30 µM (inactive) | – | – | – | – | > 30 µM (inactive) | –
COc1cc2nccc(Oc3ccc(NC(=O)Nc4cc(C)on4)c(Cl)c3)c2cc1OC [TIVOZANIB] | > 30 µM (inactive) | > 30 µM (inactive) | 0.601 µM (active) | > 30 µM (inactive) | – | > 30 µM (inactive) | > 30 µM (inactive) | > 30 µM (inactive) | > 30 µM (inactive) | > 30 µM (inactive)

Second part, the compound after the results:

Kd [1] | Kd [2] | Kd (Ephrin type-A receptor 5) | Kd [3] | Kd [4] | Kd [5] | Kd [6] | Kd (TGF-beta receptor type-1) | Kd [7] | Kd [8] | Compound
> 30 µM (inactive) | – | > 30 µM (inactive) | > 30 µM (inactive) | – | – | > 30 µM (inactive) | > 30 µM (inactive) | > 30 µM (inactive) | > 30 µM (inactive) | Cc1cc(Nc2cc(N3CCN(C)CC3)nc(/C=C/c3ccccc3)n2)n[nH]1 [ENMD-2076]
> 30 µM (inactive) | – | – | > 30 µM (inactive) | – | – | – | – | > 30 µM (inactive) | – | CCn1c(-c2nonc2N)nc2c(C#CC(C)(C)O)ncc(OC[C@H]3CCCNC3)c21 [GSK-690693]
> 30 µM (inactive) | – | – | > 30 µM (inactive) | – | – | > 30 µM (inactive) | – | > 30 µM (inactive) | > 30 µM (inactive) | Cc1nc(N)sc1-c1ccnc(Nc2ccc(N3CCOCC3)cc2)n1 [CYC-116]
> 30 µM (inactive) | – | > 30 µM (inactive) | > 30 µM (inactive) | > 30 µM (inactive) | > 30 µM (inactive) | > 30 µM (inactive) | > 30 µM (inactive) | > 30 µM (inactive) | > 30 µM (inactive) | OCCn1cc(-c2cnc3nnn(Cc4ccc5ncccc5c4)c3n2)cn1 [PF-04217903]
